Experimental data: patent US7947305B2, “Fat-soluble drug composition” (Riken Vitamin Co., Ltd., priority 2005, dated 2011)

Assay: HLB value of emulsifiers
Assay type: physicochemical
Conditions: emulsifier raw material
Protocol: The HLB value (Hydrophile Lipophile Balance) refers to a value showing hydrophilicity of a surfactant. This is an index representing the balance of the lipophilicity and hydrophilicity of the object compound, which is determined as a relative value to an HLB value for a hypothetical compound, generally an ethylene oxide adduct-type nonionic surfactant having an infinite long hydrophilic group attached to a lipophilic group and having the maximum hydrophilicity, which is set to 20, and to an HLB value for a lipophilic compound having no hydrophilic group, which is set to 0.

Q: Which HLB does the source give for CCCCCCCC/C=C\CCCCCCCC(=O)OCC(O)CO (stereo not drawn) [Glycerol oleate, glycerol monooleate] here?
A: 4.3

Q: With “decaglycerol laurate [Decaglycerol monolaurate]” as the compound, how does the HLB read?
A: 15.0

Q: For diglycerol monooleate, which HLB is on record?
A: 7.4
